Data reported in ChEMBL document CHEMBL5380807, “Imidazo[1,2-a]Pyridine Derivatives as Novel Dual-Target Inhibitors of ABCB1 and ABCG2 for Reversing Multidrug Resistance” (J Med Chem, 2023).
Active and inactive are the calls of the source. The calls are words filed in the database; no cut-off is given here.

What was measured:
K562/A02 [1] = assay: Reversal of ABCB1 mediated adriamycin resistance in human K562/A02 cells overexpressing ABCB1 assessed as reduction in survival rate at 5 uM preincubated for 1 hrs followed by adriamycin addition and measured after 72 hrs by MTS assay; type: functional
K562 [2] = assay: Reversal of ABCB1 mediated adriamycin resistance in human K562 cells assessed as reduction in survival rate at 5 uM preincubated for 1 hrs followed by adriamycin addition and measured after 72 hrs by MTS assay; type: functional, cell-based; conditions: time 73.0 hrs
K562 [3] = assay: Reversal of ABCB1 mediated adriamycin resistance in human K562 cells assessed as reduction in survival rate at 1 uM preincubated for 1 hrs followed by adriamycin addition and measured after 72 hrs by MTS assay; type: functional, cell-based; conditions: time 73.0 hrs
K562/A02 [4] = assay: Reversal of ABCB1 mediated adriamycin resistance in human K562/A02 cells overexpressing ABCB1 assessed as reduction in survival rate at 1 uM preincubated for 1 hrs followed by adriamycin addition and measured after 72 hrs by MTS assay; type: functional
K562/A02 [5] = assay: Cytotoxicity against human K562/A02 cells overexpressing ABCB1 assessed as decrease in cell survival rate at 5 uM incubated for 72 hrs by MTS assay; type: toxicity, cell-based; conditions: k562/a02, 72 h
K562 [6] = assay: Cytotoxicity against human K562 cells assessed as decrease in cell survival rate at 5 uM incubated for 72 hrs by MTS assay; type: toxicity, cell-based; conditions: k562, 72 h
[7] = Toxicity in BALB/c mouse xenografted with human K562 cells assessed as body weight loss at 1 mg/kg, ip BW for 14 days in presence of N-(4-(3-((4-Phenyipiperazin-1-yl)methyl)imidazo[l,2-a]pyridin-2-yl)phenyl)-2-(4-(4-(trifluoromethoxy)phenyl)piperazin-1-yl)acetamide; type: organism-based; conditions: in vivo, 336 h, time 14 day
[8] = Toxicity in BALB/c mouse xenografted with human K562/A02 cells overexpressing ABCB1 assessed as body weight loss at 1 mg/kg, ip BW for 14 days in presence of N-(4-(3-((4-Phenyipiperazin-1-yl)methyl)imidazo[l,2-a]pyridin-2-yl)phenyl)-2-(4-(4-(trifluoromethoxy)phenyl)piperazin-1-yl)acetamide; type: organism-based; conditions: in vivo, 336 h, time 14 day
K562 [9] = assay: Antitumor activity against human K562 cells xenografted in BALB/c mouse assessed as tumor growth inhibition at 1 mg/kg, ip BW for 14 days in presence of verapamil; type: functional, organism-based; conditions: time 14.0 day
[10] = Cytotoxicity against human K562/A02 cells overexpressing ABCB1 assessed as decrease in cell survival rate incubated for 72 hrs by MTS assay; type: toxicity, cell-based
K562 [11] = assay: Antitumor activity against human K562 cells xenografted in BALB/c mouse assessed as tumor growth inhibition at 1 mg/kg, ip BW for 14 days in presence of N-(4-(3-((4-Phenyipiperazin-1-yl)methyl)imidazo[l,2-a]pyridin-2-yl)phenyl)-2-(4-(4-(trifluoromethoxy)phenyl)piperazin-1-yl)acetamide; type: functional, organism-based; conditions: time 14.0 day
[12] = Toxicity in BALB/c mouse xenografted with human K562 cells assessed as body weight loss at 1 mg/kg, ip BW for 14 days in presence of verapamil; type: organism-based; conditions: in vivo, 336 h, time 14 day
K562/A02 [13] = assay: (§1) Antitumor activity against human K562/A02 cells overexpressing ABCB1 xenografted in BALB/c mouse assessed as tumor growth inhibition at 1 mg/kg, ip BW for 14 days; type: functional, organism-based; conditions: time 14.0 day
K562/A02 [14] = assay: as §1, with “days in presence of N-(4-(3-((4-Phenyipiperazin-1-yl)methyl)imidazo[l,2-a]pyridin-2-yl)phenyl)-2-(4-(4-(trifluoromethoxy)phenyl)piperazin-1-yl)acetamide” for “days”; type: functional, organism-based; conditions: time 14.0 day
[15] = Toxicity in BALB/c mouse xenografted with human K562/A02 cells overexpressing ABCB1 assessed as body weight loss at 1 mg/kg, ip BW for 14 days; type: organism-based; conditions: in vivo, 336 h, time 14 day
[16] = Toxicity in BALB/c mouse xenografted with human K562 cells assessed as body weight loss at 1 mg/kg, ip BW for 14 days; type: organism-based; conditions: in vivo, 336 h, time 14 day
K562 [17] = assay: Antitumor activity against human K562 cells xenografted in BALB/c mouse assessed as tumor growth inhibition at 1 mg/kg, ip BW for 14 days; type: functional, organism-based; conditions: time 14.0 day
[18] = Toxicity in BALB/c mouse xenografted with human K562/A02 cells overexpressing ABCB1 assessed as body weight loss at 1 mg/kg, ip BW for 14 days in presence of verapamil; type: organism-based; conditions: in vivo, 336 h, time 14 day
[19] = molecular target: ATP-dependent translocase ABCB1 (Homo sapiens, UniProt P08183); assay: Inhibition of ABCB1 (unknown origin) ATPase activity assessed as decrease in luminescence by firefly luciferase reporter assay
K562 [20] = assay: Antitumor activity against human K562 cells xenografted in BALB/c mouse assessed as tumor growth inhibition at 20 mg/kg, ip QD for 14 days in presence of adriamycin; type: functional, organism-based; conditions: time 14.0 day
K562/A02 [21] = assay: Reversal of ABCB1 mediated multidrug resistance in human K562/A02 cells overexpressing ABCB1 assessed as decrease in survival rate at 5 uM preincubated for 1 hrs followed by vincristine addition and measured after 72 hrs by MTS assay; type: functional; conditions: time 73 hrs
HEK293 [22] = assay: Reversal of ABCG2 mediated mitoxantrone resistance in human HEK293 overexpressing ABCG2 assessed as decrease in survival rate at 1.25 to 5 uM preincubated for 1 hrs followed by mitoxantrone addition and measured after 72 hrs by SRB assay; type: functional, cell-based; conditions: dose 1.25-5 µM, time 73.0 hrs
[23] = Cytotoxicity against human HEK293 cells expressing ABCG2 assessed as reduction in cell viability incubated for 72 hrs by SRB assay; type: toxicity, cell-based
K562/A02 [24] = assay: Reversal of ABCB1 mediated adriamycin resistance in human K562/A02 overexpressing ABCB1 assessed as decrease in survival rate at 5 uM preincubated for 1 hrs followed by adriamycin addition and measured after 72 hrs by MTS assay; type: functional
[25] = Cytotoxicity against human HEK293 cells assessed as reduction in cell viability incubated for 72 hrs by SRB assay; type: toxicity, cell-based
K562/A02 [26] = assay: Reversal of ABCB1 mediated adriamycin resistance in human K562/A02 overexpressing ABCB1 assessed as decrease in survival rate at 1.25 to 5 uM preincubated for 1 hrs followed by adriamycin addition and measured after 72 hrs by MTS assay; type: functional, cell-based; conditions: dose 1.25-5 µM, time 73.0 hrs
[27] = Cytotoxicity against human K562 cells assessed as decrease in cell survival rate incubated for 72 hrs by MTS assay; type: toxicity, cell-based
HEK293 [28] = assay: Reversal of ABCG2 mediated mitoxantrone resistance in human HEK293 assessed as decrease in survival rate at 1.25 to 5 uM preincubated for 1 hrs followed by mitoxantrone addition and measured after 72 hrs by SRB assay; type: functional, cell-based; conditions: dose 1.25-5 µM, time 73.0 hrs
K562 [29] = assay: Reversal of ABCB1 mediated adriamycin resistance in human K562 assessed as decrease in survival rate at 1.25 to 5 uM preincubated for 1 hrs followed by adriamycin addition and measured after 72 hrs by MTS assay; type: functional, cell-based; conditions: dose 1.25-5 µM, time 73.0 hrs
[30] = molecular target: T1, Broad substrate specificity ATP-binding cassette transporter ABCG2 (Homo sapiens, UniProt Q9UNQ0); assay: Inhibition of ABCG2 (unknown origin) ATPase activity assessed as decrease in luminescence by firefly luciferase reporter assay
T1 sequence (Q9UNQ0 whole entry): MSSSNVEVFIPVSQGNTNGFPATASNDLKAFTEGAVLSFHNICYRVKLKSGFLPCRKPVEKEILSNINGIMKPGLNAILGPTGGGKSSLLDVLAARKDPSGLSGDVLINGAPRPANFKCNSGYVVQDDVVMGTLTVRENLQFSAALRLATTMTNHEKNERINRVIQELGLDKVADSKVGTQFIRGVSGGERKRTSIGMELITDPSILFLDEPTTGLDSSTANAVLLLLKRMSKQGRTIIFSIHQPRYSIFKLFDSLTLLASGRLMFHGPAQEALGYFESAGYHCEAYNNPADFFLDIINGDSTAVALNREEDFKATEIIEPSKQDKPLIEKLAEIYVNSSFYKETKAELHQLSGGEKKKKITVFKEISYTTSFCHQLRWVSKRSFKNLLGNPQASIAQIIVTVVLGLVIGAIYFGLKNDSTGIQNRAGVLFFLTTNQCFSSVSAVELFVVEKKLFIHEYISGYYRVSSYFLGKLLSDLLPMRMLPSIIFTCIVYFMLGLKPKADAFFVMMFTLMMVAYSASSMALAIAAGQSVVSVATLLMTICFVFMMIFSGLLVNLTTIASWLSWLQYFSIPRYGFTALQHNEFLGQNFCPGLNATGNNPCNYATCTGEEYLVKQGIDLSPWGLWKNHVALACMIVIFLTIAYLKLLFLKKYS

Chain of ATP-dependent translocase ABCB1 (P08183 whole entry): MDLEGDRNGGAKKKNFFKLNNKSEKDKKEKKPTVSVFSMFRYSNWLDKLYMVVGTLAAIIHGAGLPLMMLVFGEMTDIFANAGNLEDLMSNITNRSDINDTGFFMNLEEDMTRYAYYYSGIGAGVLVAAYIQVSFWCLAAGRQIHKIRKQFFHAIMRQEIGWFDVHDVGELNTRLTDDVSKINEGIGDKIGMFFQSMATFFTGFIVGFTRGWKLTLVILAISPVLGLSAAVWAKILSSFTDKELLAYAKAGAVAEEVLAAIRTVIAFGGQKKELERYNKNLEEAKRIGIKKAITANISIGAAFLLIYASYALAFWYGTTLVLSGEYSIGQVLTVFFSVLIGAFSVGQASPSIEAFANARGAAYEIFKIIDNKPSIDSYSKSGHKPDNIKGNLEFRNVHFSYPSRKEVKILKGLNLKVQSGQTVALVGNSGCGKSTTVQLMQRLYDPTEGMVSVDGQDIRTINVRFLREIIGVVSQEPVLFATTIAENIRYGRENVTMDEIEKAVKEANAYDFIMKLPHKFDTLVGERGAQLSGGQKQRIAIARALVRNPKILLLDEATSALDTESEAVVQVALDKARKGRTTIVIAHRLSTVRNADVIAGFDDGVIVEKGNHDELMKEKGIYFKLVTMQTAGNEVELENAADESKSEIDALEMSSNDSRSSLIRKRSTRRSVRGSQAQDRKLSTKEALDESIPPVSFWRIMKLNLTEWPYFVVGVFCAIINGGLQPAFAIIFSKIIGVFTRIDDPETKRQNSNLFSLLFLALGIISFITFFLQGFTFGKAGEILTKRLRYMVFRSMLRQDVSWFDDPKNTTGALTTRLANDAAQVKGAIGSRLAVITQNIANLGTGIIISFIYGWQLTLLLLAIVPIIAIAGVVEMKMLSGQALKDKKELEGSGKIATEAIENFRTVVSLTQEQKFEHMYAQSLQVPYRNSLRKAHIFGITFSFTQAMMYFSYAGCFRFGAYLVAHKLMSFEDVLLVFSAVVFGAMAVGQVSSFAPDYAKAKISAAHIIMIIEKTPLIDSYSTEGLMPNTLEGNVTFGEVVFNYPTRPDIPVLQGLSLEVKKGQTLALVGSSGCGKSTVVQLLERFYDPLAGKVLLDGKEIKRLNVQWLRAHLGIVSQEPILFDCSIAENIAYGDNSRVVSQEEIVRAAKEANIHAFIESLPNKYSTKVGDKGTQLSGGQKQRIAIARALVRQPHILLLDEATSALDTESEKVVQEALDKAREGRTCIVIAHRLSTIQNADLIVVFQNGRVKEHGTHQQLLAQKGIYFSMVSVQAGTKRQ

With COc1cc2c(cc1OC)CN(CC(=O)Nc1ccc(-c3nc4ccccn4c3COCc3ccccc3)cc1)CC2 the Activity (K562/A02 [1]; time 73.0 hrs) was “Active”, the Activity (K562 [2]) was “inactive” and the Activity (K562 [3]) was “inactive”. The Activity (K562/A02 [4]; time 73.0 hrs) was “Active”, the Activity (K562/A02 [5]) was “Non-Toxic” and the Activity (K562 [6]) was “Non-Toxic”.
For COc1cc2c(cc1OC)CN(CC(=O)Nc1ccc(-c3nc4ccccn4c3CN3CCCC3)cc1)CC2, the Activity (K562/A02 [1]; time 73.0 hrs) was “Active”, the Activity (K562 [2]) was “inactive” and the Activity (K562 [3]) was “inactive”. The Activity (K562/A02 [4]; time 73.0 hrs) was “Active”, the Activity (K562/A02 [5]) was “Non-Toxic” and the Activity (K562 [6]) was “Non-Toxic”.
In the case of COc1cccc2c1C(=O)c1c(O)c3c(c(O)c1C2=O)C[C@@](O)(C(=O)CO)C[C@@H]3O[C@H]1C[C@H](N)[C@H](O)[C@H](C)O1.Cl [DOXORUBICIN HYDROCHLORIDE], the Activity [7] is reported as “Non-Toxic”, the Activity [8] is reported as “Non-Toxic” and the Activity (K562 [9]) is reported as “inactive”. For the same compound, the IC50 at 72 h [10] was 58.6 µM, the Activity (K562 [11]) was “inactive” and the Activity [12] was “Non-Toxic”. For the same compound, the Activity (K562/A02 [13]) was “inactive”, the Activity (K562/A02 [14]) was “Active” and the Activity [15] was “Non-Toxic”. The Activity [16] was “Toxic”, the Activity (K562 [17]) was “Active” and the Activity [18] was “Non-Toxic”.
In the case of COc1ccc(CCN(C)CCCC(C#N)(c2ccc(OC)c(OC)c2)C(C)C)cc1OC (stereo not drawn), the Activity (K562/A02 [1]; time 73 hrs) is reported as 51%, the Activity (K562 [2]) is reported as “Active” and the Activity (K562 [3]) is reported as “Active”. For the same compound, the “inhibition (INH)” value [19] was “Not Active”, the Activity (K562/A02 [4]; time 73 hrs) was 70% and the Activity (K562 [20]) was “inactive”. For the same compound, the Activity (K562/A02 [21]) was 56%.
In the case of C=CCN(CC=C)CC(=O)Nc1ccc(-c2nc3ccccn3c2CN2CCc3cc(OC)c(OC)cc3C2)cc1, the Activity (HEK293 [22]) is reported as “Active”, the IC50 at 72 h [23] is reported as 11.5 µM and the Activity (K562/A02 [24]) is reported as less than 30%. The IC50 at 72 h [10] was 65.2 µM, the IC50 at 72 h [25] was 37.6 µM and the Activity (K562/A02 [26]) was “Active”. The IC50 at 72 h [27] was 45.3 µM, the Activity (HEK293 [28]) was “inactive” and the Activity (K562 [29]) was “inactive”.
With CC[C@@]1(O)C(=O)OCc2c1cc1n(c2=O)Cc2cc3c(CN(C)C)c(O)ccc3nc2-1 [TOPOTECAN] the “inhibition (INH)” value [30] was “Not Active” and the “inhibition (INH)” value [19] was “Not Active”.
With COc1cc2c(cc1OC)CN(CC(=O)Nc1ccc(-c3cn4ccccc4n3)cc1)CC2 the Activity (K562/A02 [1]; time 73.0 hrs) was “Active”, the Activity (K562 [2]) was “inactive” and the Activity (K562 [3]) was “inactive”. The Activity (K562/A02 [4]; time 73.0 hrs) was “Active”, the Activity (K562/A02 [5]) was “Non-Toxic” and the Activity (K562 [6]) was “Non-Toxic”.
For C=CCN(CC=C)CC(=O)Nc1ccc(-c2nc3ccccn3c2CN2CCN(c3ccccc3)CC2)cc1, the Activity (HEK293 [22]) was “Active”, the IC50 at 72 h [23] was 18.5 µM and the Activity (K562/A02 [24]) was less than 30%. For the same compound, the IC50 at 72 h [10] was greater than 100 µM, the IC50 at 72 h [25] was 11.8 µM and the Activity (K562/A02 [26]) was “Active”. The IC50 at 72 h [27] was greater than 100 µM, the Activity (HEK293 [28]) was “inactive” and the Activity (K562 [29]) was “inactive”.
With COc1cc2c(cc1OC)CN(CC(=O)Nc1ccc(-c3nc4ccccn4c3COCc3ccc(Cl)cc3)cc1)CC2 the Activity (K562/A02 [1]; time 73.0 hrs) was “Active”, the Activity (K562 [2]) was “Active” and the Activity (K562 [3]) was “Active”. For the same compound, the Activity (K562/A02 [4]; time 73.0 hrs) was “Active”, the Activity (K562/A02 [5]) was “Non-Toxic” and the Activity (K562 [6]) was “Non-Toxic”.
